Experimental data published in US11814391B2, “Macrocyclic compounds for the treatment of medical disorders” (Achillion Pharmaceuticals, Inc., priority 2018, dated 2023).

Target: Human Factor D (Homo sapiens (Human), UniProt P00746)
Experiment: Human Factor D assay
Format: biochemical
Conditions: Human Factor D 80 nM, substrate Z-L-Lys-SBzl, A405; read-out: IC50 (Stars)
Experimental: The assay of Example 3 was used to determine the IC50's of the compounds. Other standard factor D inhibition assays are also available.
Human Factor D (purified from human serum, Complement Technology, Inc.) at 80 nM final concentration is incubated with test compound at various concentrations for 5 min at room temperature in 50 mM Tris, 1M NaCl, pH 7.5. A synthetic substrate Z-L-Lys-SBzI and DTNB (Ellman's reagent) are added to final concentrations of 100 μM each. Absorbance at 405 nm (A405) is recorded at 30 second intervals for 30 min using a microplate spectrophotometer. IC50 values are calculated by nonlinear regression of complement Factor D reaction rates as a function of test compound concentration.

Sequence of Human Factor D (P00746 26-253): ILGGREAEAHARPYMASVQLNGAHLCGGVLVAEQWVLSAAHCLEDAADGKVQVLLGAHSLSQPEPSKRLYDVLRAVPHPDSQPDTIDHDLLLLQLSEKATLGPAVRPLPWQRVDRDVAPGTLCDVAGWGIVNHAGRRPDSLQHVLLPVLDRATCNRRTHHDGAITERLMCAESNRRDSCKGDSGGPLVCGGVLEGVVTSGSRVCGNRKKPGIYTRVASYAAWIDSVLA

| Structure (SMILES) | IC50 [nM] |
| --- | --- |
| CC(=O)c1nn2c3c(cc(-c4cnc(C)nc4)cc13)CCCCCCC(=O)NC[C@@]13C[C@@H](C(=O)Nc4nc(OC(F)(F)F)ccc4C)N(C(=O)C2)[C@@H]1C3 [Compound 1, (4^1R,4^3S,4^5R)-1^3-acetyl-N-(3-methyl-6-(trifluoromethoxy)pyridin-2-yl)-1^5-(2-methylpyrimidin-5-yl)-3,7-dioxo-1^1H-4^2,6-diaza-1(1,7)-indazola-4(2,5)-bicyclo[3.1.0]hexanacyclotridecaphane-4^3-carboxamide] | < 1000 |
| CC(=O)c1nn2c3c(cc(-c4cnc(C)nc4)cc13)CCCCCCC(=O)NC[C@@]13C[C@@H](C(=O)Nc4nc(Br)ccc4CN4CC(F)C4)N(C(=O)C2)[C@@H]1C3 [Compound 2, (4^1R,4^3S,4^5R)-1^3-acetyl-N-(6-bromo-3-((3-fluoroazetidin-1-yl)methyl)pyridin-2-yl)-1^5-(2-methylpyrimidin-5-yl)-3,7-dioxo-1^1H-4^2,6-diaza-1(1,7)-indazola-4(2,5)-bicyclo[3.1.0]hexanacyclotridecaphane-4^3-carboxamide] | < 1000 |
| CC(=O)c1nn2c3c(cc(N4CCCC4)cc13)CCCCCCC(=O)NC[C@@]13C[C@@H](C(=O)Nc4nc(C(F)(F)F)ccc4C)N(C(=O)C2)[C@@H]1C3 [Compound 3, (4^1R,4^3S,4^5R)-1^3-acetyl-N-(3-methyl-6-(trifluoromethyl)pyridin-2-yl)-3,7-dioxo-1^5-(pyrrolidin-l-yl)-1^1H-4^2,6-diaza-1(1,7)-indazola-4(2,5)-bicyclo[3.1.0]hexanacyclotridecaphane-4^3-carboxamide] | < 1000 |
| CC(=O)c1nn2c3c(cc(C4CC4)cc13)CCCCCCC(=O)NC[C@@]13C[C@@H](C(=O)Nc4nc(C(F)(F)F)ccc4C)N(C(=O)C2)[C@@H]1C3 [Compound 4, (4^1R,4^3S,4^5R)-1^3-acetyl-1^5-cyclopropyl-N-(3-methyl-6-(trifluoromethyl)pyridin-2-yl)-3,7-dioxo-1^1H-4^2,6-diaza-1(1,7)-indazola-4(2,5)-bicyclo[3.1.0]hexanacyclotridecaphane-4^3-carboxamide] | < 1000 |
| CC(=O)c1nn2c3c(cc(-c4nnc(C)o4)cc13)CCCCCCC(=O)NC[C@@]13C[C@@H](C(=O)Nc4nc(C(F)(F)F)ccc4C)N(C(=O)C2)[C@@H]1C3 [Compound 5, (4^1R,4^3S,4^5R)-1^3-acetyl-1^5-(5-methyl-1,3,4-oxadiazol-2-yl)-N-(3-methyl-6-(trifluoromethyl)pyridin-2-yl)-3,7-dioxo-1^1H-4^2,6-diaza-1(1,7)-indazola-4(2,5)-bicyclo[3.1.0]hexanacyclotridecaphane-4^3-carboxamide] | < 1000 |
| COc1cc2c3c(c1)c(C(C)=O)nn3CC(=O)N1[C@H](C(=O)Nc3nc(C(F)(F)F)ccc3C)C[C@@]3(CNC(=O)CCCCCC2)C[C@@H]13 [Compound 6, (4^1R,4^3S,4^5R)-1^3-acetyl-1^5-methoxy-N-(3-methyl-6-(trifluoromethyl)pyridin-2-yl)-3,7-dioxo-1^1H-4^2,6-diaza-1(1,7)-indazola-4(2,5)-bicyclo[3.1.0]hexanacyclotridecaphane-4^3-carboxamide] | < 1000 |
| CC(=O)c1nn2c3c(cc(Oc4ncc(C)cn4)cc13)CCCCCC(=O)NC[C@@]13C[C@@H](C(=O)Nc4nc(C(F)(F)F)ccc4C)N(C(=O)C2)[C@@H]1C3 [Compound 7, (4^1R,4^3S,4^5R)-1^3-acetyl-N-(3-methyl-6-(trifluoromethyl)pyridin-2-yl)-1^5-((5-methylpyrimidin-2-yl)oxy)-3,7-dioxo-1^1H-4^2,6-diaza-1(1,7)-indazola-4(2,5)-bicyclo[3.1.0]hexanacyclododecaphane-4^3-carboxamide] | < 1000 |
| CC(=O)c1nn2c3c(cc(-c4cnc(C)nc4)cc13)CCCCC[C@@H](C)C(=O)NC[C@@]13C[C@@H](C(=O)Nc4nc(C(F)(F)F)ccc4C)N(C(=O)C2)[C@@H]1C3 [Compound 8, (4^1R,4^3S,4^5R,8R)-1^3-acetyl-8-methyl-N-(3-methyl-6-(trifluoromethyl)pyridin-2-yl)-1^5-(2-methylpyrimidin-5-yl)-3,7-dioxo-1^1H-4^2,6-diaza-1(1,7)-indazola-4(2,5)-bicyclo[3.1.0]hexanacyclotridecaphane-4^3-carboxamide] | < 1000 |
| CC(=O)c1nn2c3c(cc(-c4cnc(C)nc4)cc13)CCCCC[C@@H](C)C(=O)NC[C@@]13C[C@@H](C(=O)Nc4cc(F)cc(Br)n4)N(C(=O)C2)[C@@H]1C3 [Compound 9, (4^1R,4^3S,4^5R,8R)-1^3-acetyl-N-(6-bromo-4-fluoropyridin-2-yl)-8-methyl-1^5-(2-methylpyrimidin-5-yl)-3,7-dioxo-1^1H-4^2,6-diaza-1(1,7)-indazola-4(2,5)-bicyclo[3.1.0]hexanacyclotridecaphane-4^3-carboxamide] | < 1000 |
| CC(=O)c1nn2c3c(cc(-c4cnc(C)nc4)cc13)CCCCCC(C)(C)C(=O)NC[C@@]13C[C@@H](C(=O)Nc4nc(C(F)(F)F)ccc4C)N(C(=O)C2)[C@@H]1C3 [Compound 10, (4^1R,4^3S,4^5R)-1^3-acetyl-8,8-dimethyl-N-(3-methyl-6-(trifluoromethyl)pyridin-2-yl)-1^5-(2-methylpyrimidin-5-yl)-3,7-dioxo-1^1H-4^2,6-diaza-1(1,7)-indazola-4(2,5)-bicyclo[3.1.0]hexanacyclotridecaphane-4^3-carboxamide] | < 1000 |
| CC(=O)c1nn2c3c(cc(-c4cnc(C)nc4)cc13)CCCCCCC(=O)NC[C@@]13C[C@@H](C(=O)Nc4nc(C5CC5)ccc4C)N(C(=O)C2)[C@@H]1C3 [Compound 11, (4^1R,4^3S,45^R)-1^3-acetyl-N-(6-cyclopropyl-3-methylpyridin-2-yl)-15-(2-methylpyrimidin-5-yl)-3,7-dioxo-1^1H-4^2,6-diaza-1(1,7)-indazola-4(2,5)-bicyclo[3.1.0]hexanacyclotridecaphane-4^3-carboxamide] | < 1000 |
| CC(=O)c1nn(CC(=O)N(C)[C@H]2CCCCCCCCCc3ccc(Br)nc3NC2=O)c2ccc(-c3cnc(C)nc3)cc12 [Compound 12, (S)-2-(3-acetyl-5-(2-methylpyrimidin-5-yl)-1H-indazol-1-yl)-N-(2-bromo-15-oxo-5,6,7,8,9,10,11,12,13,14, 15,16-dodecahydropyrido[2,3-b][1]azacyclotetradecin-14-yl)-N-methylacetamide] | 1000 to 10000 |
| CC(=O)c1nn2c3c(cc(-c4cnc(C)nc4)cc13)C/C=C/CCCC(=O)N(C)C[C@@]13C[C@@H](C(=O)Nc4cc(F)cc(Br)n4)N(C(=O)C2)[C@@H]1C3 [Compound 13, (4^1R,4^3S,4^5R,E)-1^3-acetyl-N-(6-bromo-4-fluoropyridin-2-yl)-6-methyl-1^5-(2-methylpyrimidin-5-yl)-3,7-dioxo-1^1H-4^2,6-diaza-1(1,7)-indazola-4(2,5)-bicyclo[3.1.0]hexanacyclotridecaphan-11-ene-4^3-carboxamide] | < 1000 |
| CC(=O)c1nn2c3c(cc(-c4cnc(C)nc4)cc13)CCCCCCC(=O)N(C)C[C@@]13C[C@@H](C(=O)Nc4cc(F)cc(Br)n4)N(C(=O)C2)[C@@H]1C3 [Compound 14, (4^1R,4^3S,4^5R)-1^3-acetyl-N-(6-bromo-4-fluoropyridin-2-yl)-6-methyl-1^5-(2-methylpyrimidin-5-yl)-3,7-dioxo-1^1H-4^2,6-diaza-1(1,7)-indazola-4(2,5)-bicyclo[3.1.0]hexanacyclotridecaphane-4^3-carboxamide] | < 1000 |
| CC(=O)c1nn2c3c(cc(N)cc13)CCCCCCC(=O)NC[C@@]13C[C@@H](C(=O)Nc4nc(C(F)(F)F)ccc4C)N(C(=O)C2)[C@@H]1C3 [Compound 15, (4^1R,4^3S,4^5R)-1^3-acetyl-1^5-amino-N-(3-methyl-6-(trifluoromethyl)pyridin-2-yl)-3,7-dioxo-1^1H-4^2,6-diaza-1(1,7)-indazola-4(2,5)-bicyclo[3.1.0]hexanacyclotridecaphane-4^3-carboxamide] | < 1000 |
| CC(=O)c1nn2c3c(cc(-c4cnc(C)nc4)cc13)CCCCC[C@@H](C)C(=O)NC[C@@]13C[C@@H](C(=O)Nc4ccc(F)c(Br)n4)N(C(=O)C2)[C@@H]1C3 [Compound 16, (4^1R,4^3S,4^5R,8R)-1^3-acetyl-N-(6-bromo-5-fluoropyridin-2-yl)-8-methyl-1^5-(2-methylpyrimidin-5-yl)-3,7-dioxo-1^1H-4^2,6-diaza-1(1,7)-indazola-4(2,5)-bicyclo[3.1.0]hexanacyclotridecaphane-4^3-carboxamide] | < 1000 |
| CC(=O)c1nn2c3c(cc(OCC(C)C)cc13)CCCCCCC(=O)NC[C@@]13C[C@@H](C(=O)Nc4nc(C(F)(F)F)ccc4C)N(C(=O)C2)[C@@H]1C3 [Compound 17, (4^1R,4^3S,4^5R)-1^3-acetyl-1^5-isobutoxy-N-(3-methyl-6-(trifluoromethyl)pyridin-2-yl)-3,7-dioxo-1^1H-4^2,6-diaza-1(1,7)-indazola-4(2,5)-bicyclo[3.1.0]hexanacyclotridecaphane-4^3-carboxamide] | < 1000 |
| CC(=O)c1nn2c3c(cc(C)cc13)CCCCCCC(=O)NC[C@@]13C[C@@H](C(=O)Nc4nc(C(F)(F)F)ccc4C)N(C(=O)C2)[C@@H]1C3 [Compound 18, (4^1R,4^3S,4^5R)-1^3-acetyl-1^5-methyl-N-(3-methyl-6-(trifluoromethyl)pyridin-2-yl)-3,7-dioxo-1^1H-4^2,6-diaza-1(1,7)-indazola-4(2,5)-bicyclo[3.1.0]hexanacyclotridecaphane-4^3-carboxamide] | < 1000 |
| CC(=O)c1nn2c3c(cc(OC(C)C)cc13)CCCCCCC(=O)NC[C@@]13C[C@@H](C(=O)Nc4nc(C(F)(F)F)ccc4C)N(C(=O)C2)[C@@H]1C3 [Compound 19, (4^1R,4^3S,4^5R)-1^3-acetyl-1^5-isopropoxy-N-(3-methyl-6-(trifluoromethyl)pyridin-2-yl)-3,7-dioxo-1^1H-4^2,6-diaza-1(1,7)-indazola-4(2,5)-bicyclo[3.1.0]hexanacyclotridecaphane-4^3-carboxamide] | < 1000 |
